Data as given in PubChem BioAssay AID292 (DTP/NCI, 2004).
Several values for one entry are separate records, joined by “and”; a condition that tells them apart may be missing. Identical values can stand only once. Toxic doses and inconclusive results are not listed.

System: B6C3F1 mice, ip Sarcoma M5076, median survival T/C
Experiment: NCI In Vivo Anticancer Drug Screen. Data for tumor model Sarcoma M5076 (intraperitoneal) in B6C3F1 mice
Conditions: endpoint: median survival time, schedule: Q04DX004 (ip), higher = longer survival
How it was run: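 Antitumour effect is judged in tumour-bearing mice by comparing survival after compound dosing against vehicle-only animals, reported as T/C.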

[1] = dose: 37.5 mg/kg/injection, vehicle: Klucel (hydroxypropylcellulose) (HPC)
[2] = dose: 75.0 mg/kg/injection, vehicle: Klucel (hydroxypropylcellulose) (HPC)
[3] = dose: 150.0 mg/kg/injection, vehicle: Klucel (hydroxypropylcellulose) (HPC)
[4] = dose: 300.0 mg/kg/injection, vehicle: Klucel (hydroxypropylcellulose) (HPC)
[5] = dose: 25.0 mg/kg/injection, vehicle: water
[6] = dose: 50.0 mg/kg/injection, vehicle: water
[7] = dose: 100.0 mg/kg/injection, vehicle: water
[8] = dose: 200.0 mg/kg/injection, vehicle: water
[9] = dose: 50.0 mg/kg/injection, vehicle: saline with Tween-80
[10] = dose: 100.0 mg/kg/injection, vehicle: saline with Tween-80
[11] = dose: 400.0 mg/kg/injection, vehicle: saline with Tween-80
[12] = dose: 25.0 mg/kg/injection, vehicle: Klucel (hydroxypropylcellulose) (HPC)
[13] = dose: 50.0 mg/kg/injection, vehicle: Klucel (hydroxypropylcellulose) (HPC)
[14] = dose: 100.0 mg/kg/injection, vehicle: Klucel (hydroxypropylcellulose) (HPC)
[15] = dose: 200.0 mg/kg/injection, vehicle: Klucel (hydroxypropylcellulose) (HPC)
[16] = dose: 400.0 mg/kg/injection, vehicle: Klucel (hydroxypropylcellulose) (HPC)
[17] = dose: 50.0 mg/kg/injection, vehicle: saline
[18] = dose: 100.0 mg/kg/injection, vehicle: saline
[19] = dose: 200.0 mg/kg/injection, vehicle: saline
[20] = dose: 12.5 mg/kg/injection, vehicle: Klucel (hydroxypropylcellulose) (HPC)
[21] = dose: 50.0 mg/kg/injection, vehicle: suspension in saline
[22] = dose: 100.0 mg/kg/injection, vehicle: suspension in saline
[23] = dose: 200.0 mg/kg/injection, vehicle: suspension in saline

## O=C(Nc1cccc(C(F)(F)F)c1)C(Cl)=C(Cl)Cl
[1]
  T/C: 95 % of control
[2]
  T/C: 103 % of control
[3]
  T/C: 102 % of control
[4]
  T/C: 102 % of control
dose: 600.0 mg/kg/injection, vehicle: Klucel (hydroxypropylcellulose) (HPC)
  T/C: 87 % of control

## O=C1NC(=O)C23CCCCc4cccc(c42)C(=O)C13 (centres undefined)
[5]
  T/C: 103 % of control
[6]
  T/C: 103 % of control
[7]
  T/C: 107 % of control
[8]
  T/C: 103 % of control
dose: 400.0 mg/kg/injection, vehicle: water
  T/C: 106 % of control

## O=C(Nc1ccc([N+](=O)[O-])cc1)C1C(=O)C(=O)N(c2ccc([N+](=O)[O-])cc2)C1=O (centres undefined)
dose: 50.0 mg/kg/injection, vehicle: Klucel + Tween-80
  T/C: 96 % of control
dose: 100.0 mg/kg/injection, vehicle: Klucel + Tween-80
  T/C: 104 % of control
dose: 200.0 mg/kg/injection, vehicle: Klucel + Tween-80
  T/C: 92 % of control

## C/C=C(\C)C(=O)OC1C(C)=C2C(C1OC(=O)CCCCC)C(C)(OC(C)=O)CC(OC(=O)CCC)C1(O)C2OC(=O)C1(C)O (centres undefined)
dose: 1.0 mg/kg/injection, vehicle: Klucel (hydroxypropylcellulose) (HPC)
  T/C: 97 % of control and 101 % of control
dose: 2.0 mg/kg/injection, vehicle: Klucel (hydroxypropylcellulose) (HPC)
  T/C: 92 % of control and 101 % of control

## CSC1=NCc2c(sc3c2CCCC3)N1
[1]
  T/C: 98 % of control
[2]
  T/C: 103 % of control
[3]
  T/C: 99 % of control
[4]
  T/C: 102 % of control

## CN(C)CCNc1ccc(CO)c2sc3ccc(O)cc3c(=O)c12
[9]
  T/C: 155 % of control
[10]
  T/C: 119 % of control
[11]
  T/C: 158 % of control

## CCC(=O)N=c1sc(SCc2ccccc2)nn1C(=O)SC (tested in a mixture with another compound)
[12]
  T/C: 101 % of control
[13]
  T/C: 96 % of control
[14]
  T/C: 101 % of control
[15]
  T/C: 89 % of control
[16]
  T/C: 86 % of control

## CC(/C=C/C1OC(=O)C=CC1C)=C\C(C)C/C=C/C(C)=C/C(CO)C(=O)C(C)C(O)C(C)C/C(C)=C/C(=O)O (centres undefined)
dose: 13.63 micrograms/kg/injection, vehicle: other
  T/C: 100 % of control
dose: 27.25 micrograms/kg/injection, vehicle: other
  T/C: 107 % of control
dose: 54.5 micrograms/kg/injection, vehicle: other
  T/C: 109 % of control
dose: 109.0 micrograms/kg/injection, vehicle: other
  T/C: 113 % of control
dose: 500.0 micrograms/kg/injection, vehicle: other
  T/C: 171 % of control
dose: 1000.0 micrograms/kg/injection, vehicle: other
  T/C: 202 % of control
dose: 2000.0 micrograms/kg/injection, vehicle: other
  T/C: 192 % of control

## COC1N(C2CC(O)C(CO)O2)C(=O)NC(=O)C1(F)Br (centres undefined)
dose: 25.0 mg/kg/injection, vehicle: saline
  T/C: 108 % of control
[17]
  T/C: 113 % of control
[18]
  T/C: 112 % of control
[19]
  T/C: 114 % of control
dose: 400.0 mg/kg/injection, vehicle: saline
  T/C: 113 % of control

## O=CC(O)C(O)C(O)C(O)CO (centres undefined)
dose: 75.0 mg/kg/injection, vehicle: saline
  T/C: 93 % of control
dose: 150.0 mg/kg/injection, vehicle: saline
  T/C: 96 % of control
dose: 300.0 mg/kg/injection, vehicle: saline
  T/C: 96 % of control
dose: 600.0 mg/kg/injection, vehicle: saline
  T/C: 98 % of control
dose: 1200.0 mg/kg/injection, vehicle: saline
  T/C: 93 % of control

## N=C(N)c1ccc(N=Nc2c(O)ccc3cc(O)ccc23)cc1
[20]
  T/C: 98 % of control and 103 % of control
[12]
  T/C: 95 % of control and 99 % of control
[13]
  T/C: 96 % of control and 103 % of control
[14]
  T/C: 100 % of control and 103 % of control
[15]
  T/C: 97 % of control and 98 % of control

## CCCCCC[Se][Se]CCCCCC
dose: 3.12 mg/kg/injection, vehicle: Klucel (hydroxypropylcellulose) (HPC)
  T/C: 123 % of control
dose: 6.25 mg/kg/injection, vehicle: Klucel (hydroxypropylcellulose) (HPC)
  T/C: 106 % of control
[20]
  T/C: 114 % of control
[12]
  T/C: 115 % of control

## CN1CCN(c2c(C(=O)Nc3ccc([N+](=O)[O-])cc3)cc([N+](=O)[O-])cc2[N+](=O)[O-])CC1
dose: 37.5 mg/kg/injection, vehicle: saline with Tween-80
  T/C: 96 % of control
dose: 75.0 mg/kg/injection, vehicle: saline with Tween-80
  T/C: 91 % of control

## CCCCCNc1ncnc2c(C)[nH]nc12
[12]
  T/C: 105 % of control
[13]
  T/C: 97 % of control
[14]
  T/C: 103 % of control
[15]
  T/C: 88 % of control

## Nc1ccn(C2CC(N)C(CO)O2)c(=O)n1 (centres undefined)
[5]
  T/C: 109 % of control
[6]
  T/C: 118 % of control and 120 % of control
[7]
  T/C: 121 % of control and 124 % of control
dose: 800.0 mg/kg/injection, vehicle: water
  T/C: 163 % of control

## CCN(CC)CCN1C(=O)C2C3C=CC(C2C1=O)C1C2C(=O)N(CCN(CC)CC)C(=O)C2C31 (centres undefined)
[5]
  T/C: 95 % of control
[6]
  T/C: 99 % of control
[7]
  T/C: 97 % of control
[8]
  T/C: 99 % of control

## COc1cc(C#N)c(NC(=S)N2CCN(C(=O)c3ccco3)CC2)cc1OC
[13]
  T/C: 98 % of control
[14]
  T/C: 111 % of control
[15]
  T/C: 103 % of control
[16]
  T/C: 90 % of control

## O=C(NNC(=O)c1cccc(C(=O)NNC(=O)c2ccc(Cl)c(Cl)c2)n1)c1ccc(Cl)c(Cl)c1
[12]
  T/C: 102 % of control
[13]
  T/C: 96 % of control

## O=NNc1ccc2cccnc2n1
dose: 12.5 mg/kg/injection, vehicle: water
  T/C: 104 % of control
[5]
  T/C: 116 % of control
[6]
  T/C: 151 % of control
[7]
  T/C: 151 % of control and 161 % of control
[8]
  T/C: 174 % of control

## CCOC(=O)C1=C(Nc2ccc(OC)cc2)C(N)=NC1=N
dose: 12.5 mg/kg/injection, vehicle: suspension in saline
  T/C: 102 % of control
dose: 25.0 mg/kg/injection, vehicle: suspension in saline
  T/C: 100 % of control
[9]
  T/C: 101 % of control
[21]
  T/C: 111 % of control
[10]
  T/C: 99 % of control
[22]
  T/C: 101 % of control
dose: 200.0 mg/kg/injection, vehicle: saline with Tween-80
  T/C: 102 % of control
[23]
  T/C: 105 % of control
[11]
  T/C: 106 % of control
dose: 800.0 mg/kg/injection, vehicle: saline with Tween-80
  T/C: 101 % of control

## COC(=O)NC1C(C)OC(OC2C/C=C(/C)C3C=CC4C(OC5CC(OC6CC(O)C(OC7CC(O)C(OC)C(C)O7)C(C)O6)C(O)C(C)O5)C(C)CC(C)C4C3(C)/C(O)=C3\C(=O)OC4(CC(C)C(CO)=CC4/C=C\2C)C3=O)CC1(C)[N+](=O)[O-] (centres undefined)
[12]
  T/C: 105 % of control
[13]
  T/C: 100 % of control
[14]
  T/C: 87 % of control
[15]
  T/C: 100 % of control

## CC#CCOCC(O)CCl (centres undefined)
[17]
  T/C: 99 % of control
[21]
  T/C: 102 % of control
[18]
  T/C: 98 % of control
[22]
  T/C: 102 % of control
[19]
  T/C: 103 % of control
[23]
  T/C: 102 % of control
dose: 400.0 mg/kg/injection, vehicle: suspension in saline
  T/C: 100 % of control
